From patent publication US20240182489A1, “New 5,6,7,8-Tetrahydropyrido[4',3':4,5]thieno[2,3-d]pyrimidin-4(3H)-one Derivatives as Sigma Ligands” (ACONDICIONAMIENTO TARRASENSE, priority 2021, published 2024) come the findings set out here.

SMILES strings stand for the structures. A value given as a limit tells only on which side of the number the result lay.

The test concerns the target T1, human σ1 receptor (Homo sapiens, UniProt Q99720).
T1 construct: expressed in transfected cells; host or cells: HEK-293 (membranes)
Put plainly: Human σ1 receptor radioligand assay. The format is binding. As to conditions: [3H](+)-pentazocine radioligand, transfected HEK-293 membranes.

T1 sequence (Q99720 whole entry): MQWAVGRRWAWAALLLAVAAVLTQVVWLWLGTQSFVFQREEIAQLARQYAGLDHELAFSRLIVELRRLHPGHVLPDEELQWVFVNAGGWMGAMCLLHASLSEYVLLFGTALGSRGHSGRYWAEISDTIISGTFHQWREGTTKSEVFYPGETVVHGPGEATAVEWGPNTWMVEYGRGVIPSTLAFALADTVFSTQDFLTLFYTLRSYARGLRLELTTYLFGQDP

`C[C@@H](c1cc(Cl)ccc1F)n1cnc2sc3c(c2c1=O)CCNC3` [Example 29, (S)-3-(1-(5-Chloro-2-fluorophenyl)ethyl)-5,6,7,8-tetrahydropyrido[4′,3′:4,5]thieno[2,3-d]pyrimidin-4(3H)-one] displayed a Ki of under 500 nM. `C[C@@H](c1cc(F)cc(Cl)c1)n1cnc2sc3c(c2c1=O)CCNC3` [Example 27, (S)-3-(1-(3-Chloro-5-fluorophenyl)ethyl)-5,6,7,8-tetrahydropyrido[4′,3′:4,5]thieno[2,3-d]pyrimidin-4(3H)-one] came in with a Ki of under 100 nM. In the case of `C[C@H](c1ccc(F)cc1)n1cnc2sc3c(c2c1=O)CNCC3` [Example 17, (R)-3-(1-(4-Fluorophenyl)ethyl)-5,6,7,8-tetrahydropyrido[3′,4′:4,5]thieno[2,3-d]pyrimidin-4(3H)-one], the Ki is over 500 nM. As to `C[C@@H](c1ccc(F)cc1Cl)n1cnc2sc3c(c2c1=O)CCNC3` [Example 25, (S)-3-(1-(2-Chloro-4-fluorophenyl)ethyl)-5,6,7,8-tetrahydropyrido[4′,3′:4,5]thieno[2,3-d]pyrimidin-4(3H)-one], the Ki is under 500 nM. `C[C@H](c1ccc(F)cc1Cl)n1cnc2sc3c(c2c1=O)CCNC3` [Example 26, (R)-3-(1-(2-chloro-4-fluorophenyl)ethyl)-5,6,7,8-tetrahydropyrido[4′,3′:4,5]thieno[2,3-d]pyrimidin-4(3H)-one] displayed a Ki of over 500 nM. Take `Cc1nc(-c2ccc(C(C)n3cnc4sc5c(c4c3=O)CCNC5)cc2)no1` (centres unmarked) [Example 24, 3-(1-(4-(5-Methyl-1,2,4-oxadiazol-3-yl)phenyl)ethyl)-5,6,7,8-tetrahydropyrido[4′,3′:4,5]thieno[2,3-d]pyrimidin-4(3H)-one]: the inhibition constant Ki was over 500 nM. In turn, `C[C@H](c1ccc(C#N)c(F)c1)n1cnc2sc3c(c2c1=O)CCNC3` [Example 20, (R)-2-fluoro-4-(1-(4-oxo-5,6,7,8-tetrahydropyrido[4′,3′:4,5]thieno[2,3-d]pyrimidin-3(4H)-yl)ethyl)benzonitrile] registered a Ki of over 500 nM. Then `C[C@H](c1cccc(C#N)c1)n1cnc2sc3c(c2c1=O)CCNC3` [Example 14, (R)-3-(1-(4-Oxo-5,6,7,8-tetrahydropyrido[4′,3′:4,5]thieno[2,3-d]pyrimidin-3(4H)-yl)ethyl)benzonitrile], with under 100 nM.

In turn, `C[C@@H](c1ccc(C#N)c(F)c1)n1cnc2sc3c(c2c1=O)CCNC3` [Example 19, (S)-2-Fluoro-4-(1-(4-oxo-5,6,7,8-tetrahydropyrido[4′,3′:4,5]thieno[2,3-d]pyrimidin-3(4H)-yl)ethyl)benzonitrile] yielded a Ki of under 500 nM. `C[C@H](c1cc(F)cc(Cl)c1)n1cnc2sc3c(c2c1=O)CCNC3` [Example 28, (R)-3-(1-(3-chloro-5-fluorophenyl)ethyl)-5,6,7,8-tetrahydropyrido[4′,3′:4,5]thieno[2,3-d]pyrimidin-4(3H)-one] displayed an inhibitory constant (Ki) of under 100 nM. As to `C[C@H](c1cc(F)cc(C#N)c1)n1cnc2sc3c(c2c1=O)CCNC3` [Example 30, (R)-3-Fluoro-5-(1-(4-oxo-5,6,7,8-tetrahydropyrido[4′,3′:4,5]thieno[2,3-d]pyrimidin-3(4H)-yl)ethyl)benzonitrile], the Ki is under 100 nM.
